# According to patent US8148367B2 (Takeda Pharmaceutical Company Limited, priority 2008, dated 2012):
# Molecular target: T1, Recombinant human renin (Homo sapiens, UniProt P00797)
# T1 construct: isolate the active form (residues 67-406); made in house; host or cells: FreeStyle 293-F cells, transient expression of pcDNA3.1(+)/hREN
# T1 sequence (P00797 67-406): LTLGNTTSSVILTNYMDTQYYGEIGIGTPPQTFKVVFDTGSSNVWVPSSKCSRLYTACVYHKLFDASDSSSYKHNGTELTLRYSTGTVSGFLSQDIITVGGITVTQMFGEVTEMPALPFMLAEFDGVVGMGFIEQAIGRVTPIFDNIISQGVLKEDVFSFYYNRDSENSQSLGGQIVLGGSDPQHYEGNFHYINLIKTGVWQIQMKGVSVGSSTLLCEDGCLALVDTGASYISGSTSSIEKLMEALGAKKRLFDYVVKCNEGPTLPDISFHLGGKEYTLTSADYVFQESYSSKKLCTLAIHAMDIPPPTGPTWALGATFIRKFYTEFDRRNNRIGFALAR
# Test: In vitro enzymatic activity assay of renin inhibitors (fluorescence, QXL520/HiLyteFluo488 peptide substrate)
# Format: biochemical
# Details: recombinant human renin 3 nM, 1 μM substrate, pre-incubated 10 minutes at 37° C., incubation one hour, pH 7.4, 5% DMSO; read-out: IC50 of Exemplified Compounds Against Renin
row,SMILES,IC50
1,"COC(=O)C(c1ccccc1)n1c(C(=O)N2CCNCC2)c(-c2ccccc2)n(C2CCCCC2)c1=O (stereo not drawn) [Example 68, Methyl 2-(3-cyclohexyl-2-oxo-4-phenyl-5-(piperazine-1-carbonyl)-2,3-dihydro-1H-imidazol-1-yl)-2-phenylacetate]",> 1000 nM
2,"O=C(c1c(-c2ccccc2)n(-c2ccccc2)c(=O)n1Cc1c[nH]cn1)N1CCNCC1 [Example 49, 1-((1H-Imidazol-4-yl)methyl)-3,4-diphenyl-5-(piperazine-1-carbonyl)-1H-imidazol-2(3H)-one]",> 1000 nM
3,"O=C(c1c(-c2ccccc2)n(-c2ccccn2)c(=O)n1Cc1ccccc1)N1CCNCC1 [Example 46, 1-Benzyl-4-phenyl-5-(piperazine-1-carbonyl)-3-(pyridin-2-yl)-1H-imidazol-2(3H)-one]",> 1000 nM
4,"Cc1ccccc1-n1c(-c2ccccc2)c(C(=O)N2CCNCC2)n(CCCNC(=O)c2ccccc2F)c1=O [Example 240, 2-Fluoro-N-(3-(2-oxo-4-phenyl-5-(piperazine-1-carbonyl)-3-o-tolyl-2,3-dihydro-1H-imidazol-1-yl)propyl)benzamide]",> 1000 nM
5,"COCCCOc1ccccc1-n1c(-c2ccccc2)c(C(=O)N2CCNCC2)[nH]c1=O [Example 33, 1-(2-(3-Methoxypropoxy)phenyl)-5-phenyl-4-(piperazine-1-carbonyl)-1H-imidazol-2(3H)-one]",> 1000 nM
6,"O=C(c1c(-c2ccccc2)n(-c2cccc(N3CCOCC3)c2)c(=O)n1CCCNS(=O)(=O)c1ccccc1F)N1CCNCC1 [Example 193, 2-Fluoro-N-(3-(3-(3-morpholinophenyl)-2-oxo-4-phenyl-5-(piperazine-1-carbonyl)-2,3-dihydro-1H-imidazol-1-yl)propyl)benzenesulfonamide]",> 1000 nM
7,"CC1CN(C(=O)c2[nH]c(=O)n(C3CCCCC3)c2-c2ccccc2)C(C)CN1 (stereo not drawn) [Example 41, 1-Cyclohexyl-4-(2,5-dimethylpiperazine-1-carbonyl)-5-phenyl-1H-imidazol-2(3H)-one]",> 1000 nM
8,"Cc1cc(Cn2c(C(=O)N3CCNCC3)c(-c3ccccc3)n(-c3ccccc3)c2=O)no1 [Example 47, 1-((5-Methylisoxazol-3-yl)methyl)-3,4-diphenyl-5-(piperazine-1-carbonyl)-1H-imidazol-2(3H)-one]",> 1000 nM
9,O=C(NCCCn1c(C(=O)N2CCNCC2)c(-c2ccccc2)n(-c2cccc(N3CCOCC3)c2)c1=O)c1ccccc1 [Example 174],> 1000 nM
10,"COc1ccc(C(=O)NCCCn2c(C(=O)N3CCNCC3)c(-c3ccccc3)n(-c3ccccc3C)c2=O)cc1 [Example 245, 4-Methoxy-N-(3-(2-oxo-4-phenyl-5-(piperazine-1-carbonyl)-3-o-tolyl-2,3-dihydro-1H-imidazol-1-yl)propyl)benzamide]",> 1000 nM
11,"O=C(NCCCn1c(C(=O)N2CCNCC2)c(-c2ccccc2)n(C2CCCC[C@@H]2O)c1=O)c1ccccc1 (stereo partly drawn) [Example 170, N-(3-(3-((2S)-2-Hydroxycyclohexyl)-2-oxo-4-phenyl-5-(piperazine-1-carbonyl)-2,3-dihydro-1H-imidazol-1-yl)propyl)benzamide]",> 1000 nM
12,"COc1ccccc1-n1c(-c2ccccc2)c(C(=O)N2CCNCC2)n(CCNC(=O)CC(C)C)c1=O [Example 169, N-(2-(3-(2-Methoxyphenyl)-2-oxo-4-phenyl-5-(piperazine-1-carbonyl)-2,3-dihydro-1H-imidazol-1-yl)ethyl)-3-methylbutanamide]",> 1000 nM
13,"COc1ccc(S(=O)(=O)NCCn2c(C(=O)N3CCNCC3)c(-c3ccccc3)n(-c3ccccc3C)c2=O)cc1 [Example 210, 4-Methoxy-N-(2-(2-oxo-4-phenyl-5-(piperazine-1-carbonyl)-3-o-tolyl-2,3-dihydro-1H-imidazol-1-yl)ethyl)benzenesulfonamide]",> 1000 nM
14,"COc1cccc(S(=O)(=O)NCCn2c(C(=O)N3CCNCC3)c(-c3ccccc3)n(-c3ccccc3C)c2=O)c1 [Example 209, 3-Methoxy-N-(2-(2-oxo-4-phenyl-5-(piperazine-1-carbonyl)-3-o-tolyl-2,3-dihydro-1H-imidazol-1-yl)ethyl)benzenesulfonamide]",> 1000 nM
15,"O=C(c1[nH]c(=O)n(C2CCCCC2)c1-c1ccccc1)N1CCCNCC1 [Example 89, 1-Cyclohexyl-4-(1,4-diazepane-1-carbonyl)-5-phenyl-1H-imidazol-2(3H)-one]",> 1000 nM
16,"CC(C)c1c(C(=O)N2CCNCC2)[nH]c(=O)n1-c1ccccc1 [Example 23, 5-Isopropyl-1-phenyl-4-(piperazine-1-carbonyl)-1H-imidazol-2(3H)-one]",> 1000 nM
17,"O=C(c1c(-c2ccccc2)n(-c2ccccc2)c(=O)n1Cc1nnc(C2CC2)s1)N1CCNCC1 [Example 48, 1-((5-Cyclopropyl-1,3,4-thiadiazol-2-yl)methyl)-3,4-diphenyl-5-(piperazine-1-carbonyl)-1H-imidazol-2(3H)-one]",> 1000 nM
18,"O=C(c1[nH]c(=O)n(C2CCCN(S(=O)(=O)c3ccccc3)C2)c1-c1ccccc1)N1CCNCC1 (stereo not drawn) [Example 98, 5-Phenyl-1-(1-(phenylsulfonyl)piperidin-3-yl)-4-(piperazine-1-carbonyl)-1H-imidazol-2(3H)-one]",500 to 1000 nM
19,"Cc1ccccc1-n1c(-c2ccccc2)c(C(=O)N2CCNCC2)n(CC2CCCCC2)c1=O [Example 163, 1-(Cyclohexylmethyl)-4-phenyl-5-(piperazine-1-carbonyl)-3-o-tolyl-1H-imidazol-2(3H)-one]",> 1000 nM
20,"N#Cc1cccc(Cn2c(C(=O)N3CCNCC3)c(-c3ccccc3)n(-c3ccccc3)c2=O)c1 [Example 79, 3-((2-oxo-3,4-diphenyl-5-(piperazine-1-carbonyl)-2,3-dihydro-1H-imidazol-1-yl)methyl)benzonitrile]",500 to 1000 nM
21,"Cc1ccccc1-n1c(-c2ccccc2)c(C(=O)N2CCNCC2)n(CCNC(=O)NC(C)C)c1=O [Example 216, 1-Isopropyl-3-(2-(2-oxo-4-phenyl-5-(piperazine-1-carbonyl)-3-o-tolyl-2,3-dihydro-1H-imidazol-1-yl)ethyl)urea]",> 1000 nM

# The next lines start with the values.
row,IC50,SMILES
1,500 to 1000 nM,"COc1ccc(S(=O)(=O)NCCCn2c(C(=O)N3CCNCC3)c(-c3ccccc3)n(-c3cccc(N4CCOCC4)c3)c2=O)cc1 [Example 199, 4-Methoxy-N-(3-(3-(3-morpholinophenyl)-2-oxo-4-phenyl-5-(piperazine-1-carbonyl)-2,3-dihydro-1H-imidazol-1-yl)propyl)benzenesulfonamide]"
2,< 100 nM,"O=C(c1[nH]c(=O)n(-c2cccc(N3CCOCC3)c2)c1-c1ccccc1)N1CCNC[C@H]1Cc1ccccc1 [Example 110, (R)-4-(2-Benzylpiperazine-1-carbonyl)-1-(3-morpholinophenyl)-5-phenyl-1H-imidazol-2(3H)-one]"
3,100 to 500 nM,"CCS(=O)(=O)Nc1ccccc1-n1c(-c2ccccc2)c(C(=O)N2CCNC[C@H]2Cc2ccccc2)[nH]c1=O [Example 127, (R)—N-(2-(4-(2-Benzylpiperazine-1-carbonyl)-2-oxo-5-phenyl-2,3-dihydro-1H-imidazol-1-yl)phenyl)ethanesulfonamide]"
4,100 to 500 nM,"O=C(c1c(-c2ccccc2)n(-c2ccccc2)c(=O)n1Cc1ccc(F)c(F)c1)N1CCNCC1 [Example 52, 1-(3,4-Difluorobenzyl)-3,4-diphenyl-5-(piperazine-1-carbonyl)-1H-imidazol-2(3H)-one]"
5,100 to 500 nM,"CCCC(=O)Nc1ccccc1-n1c(-c2ccccc2)c(C(=O)N2CCNC[C@H]2Cc2ccccc2)[nH]c1=O [Example 121, (R)—N-(2-(4-(2-Benzylpiperazine-1-carbonyl)-2-oxo-5-phenyl-2,3-dihydro-1H-imidazol-1-yl)phenyl)butyramide]"
6,500 to 1000 nM,"COCCCOc1cccc(-n2c(-c3ccccc3)c(C(=O)N3CCNCC3)[nH]c2=O)c1 [Example 35, 1-(3-(3-Methoxypropoxy)phenyl)-5-phenyl-4-(piperazine-1-carbonyl)-1H-imidazol-2(3H)-one]"
7,100 to 500 nM,"COc1cccc(Cn2c(C(=O)N3CCNCC3)c(-c3ccccc3)n(-c3ccccc3)c2=O)c1 [Example 83, 1-(3-methoxybenzyl)-3,4-diphenyl-5-(piperazine-1-carbonyl)-1H-imidazol-2(3H)-one]"
8,100 to 500 nM,"O=C(c1[nH]c(=O)n(-c2ccccc2NS(=O)(=O)C2CC2)c1-c1ccccc1)N1CCNC[C@H]1Cc1ccccc1 [Example 123, (R)—N-(2-(4-(2-Benzylpiperazine-1-carbonyl)-2-oxo-5-phenyl-2,3-dihydro-1H-imidazol-1-yl)phenyl)cyclopropanesulfonamide]"
9,< 100 nM,"O=C(c1[nH]c(=O)n(C2CCCCC2)c1-c1ccccc1)N1CCNC[C@H]1Cc1ccccc1 [Example 111, (R)-4-(2-Benzylpiperazine-1-carbonyl)-1-cyclohexyl-5-phenyl-1H-imidazol-2(3H)-one]"
10,100 to 500 nM,"O=C(c1c(-c2ccccc2)n(C2CCCCC2)c(=O)n1CCc1ccccc1)N1CCNCC1 [Example 71, 1-Cyclohexyl-3-phenethyl-5-phenyl-4-(piperazine-1-carbonyl)-1H-imidazol-2(3H)-one]"
11,< 100 nM,"O=C(c1c(-c2ccccc2)n(-c2cccc(N3CCOCC3)c2)c(=O)n1Cc1cccc(-n2cccc2)c1)N1CCNCC1 [Example 77, 1-(3-(1H-Pyrrol-1-yl)benzyl)-3-(3-morpholinophenyl)-4-phenyl-5-(piperazine-1-carbonyl)-1H-imidazol-2(3H)-one]"
12,100 to 500 nM,"COc1ccccc1NC(=O)NCCCn1c(C(=O)N2CCNCC2)c(-c2ccccc2)n(-c2ccccc2C)c1=O [Example 225, 1-(2-Methoxyphenyl)-3-(3-(2-oxo-4-phenyl-5-(piperazine-1-carbonyl)-3-o-tolyl-2,3-dihydro-1H-imidazol-1-yl)propyl)urea]"
